From PubChem BioAssay AID651878 (Vanderbilt Specialized Chemistry Center, 2012)
Active and inactive are the calls of the source.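 How the source made its calls: active means Positive modulators of the M5 receptor in a calcium signal test, half-maximal potency under 10 µM; inactive means the rest.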

Each molecule was assayed against Muscarinic acetylcholine receptor M5 (Homo sapiens) (UniProt P08912) (assay: potentiation of ACh response at human M5 – cell-based, concentration-response curve, dose response (AID 651878)). Conditions: CHO-K1 hM5, Fluo-4 calcium flux, ACh EC20 potentiation.
Muscarinic acetylcholine receptor M5 (Homo sapiens), sequence (P08912 whole entry, looked up): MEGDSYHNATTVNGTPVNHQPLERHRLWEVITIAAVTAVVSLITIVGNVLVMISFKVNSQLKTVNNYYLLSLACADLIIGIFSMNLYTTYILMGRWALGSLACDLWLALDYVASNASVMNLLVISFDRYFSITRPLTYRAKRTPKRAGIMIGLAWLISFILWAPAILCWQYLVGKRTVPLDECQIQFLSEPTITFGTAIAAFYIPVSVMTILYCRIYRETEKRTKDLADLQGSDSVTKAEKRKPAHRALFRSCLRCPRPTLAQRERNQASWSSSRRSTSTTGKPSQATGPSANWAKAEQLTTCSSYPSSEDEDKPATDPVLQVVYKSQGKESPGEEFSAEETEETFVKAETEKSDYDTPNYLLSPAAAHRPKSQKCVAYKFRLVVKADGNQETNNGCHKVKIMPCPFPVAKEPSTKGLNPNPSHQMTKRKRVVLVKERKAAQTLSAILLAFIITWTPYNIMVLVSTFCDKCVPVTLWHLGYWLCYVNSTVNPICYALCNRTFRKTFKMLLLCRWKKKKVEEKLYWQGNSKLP

| SMILES | EC50 [µM] |
| --- | --- |
| COc1ccc(CN2C(=O)C(O)(C[N+](=O)[O-])c3cc(OC(F)(F)F)ccc32)cc1 (configuration not stated) | 1.38 |
| COc1ccc(CN2C(=O)C(O)(c3ccc(F)nc3)c3cc(OC(F)(F)F)ccc32)cc1 (configuration not stated) | 2.19 |

Same assay, conditions: CHO-K1 hM5, Fluo-4 calcium flux, ACh EC20 potentiation; at 31.6 µM (top of the series)

| SMILES | % ACh max response |
| --- | --- |
| COc1ncc(-c2ccc(CN3C(=O)C(=O)c4cc(OC(F)(F)F)ccc43)cc2)cn1 | 74.4% |
| COc1ccc(-c2ccc(CN3C(=O)C(=O)c4cc(OC(F)(F)F)ccc43)cc2)cn1 | 71.9% |
| COc1ccc(CN2C(=O)C(O)(c3ccc(N(C)C)nc3)c3cc(OC(F)(F)F)ccc32)cc1 (configuration not stated) | inactive |

The next lines start with the values.

| % ACh max response | SMILES |
| --- | --- |
| inactive | COc1ccc(CN2C(=O)C3(COC3)c3cc(OC(F)(F)F)ccc32)cc1 |
| inactive | COc1ccc(CN2C(=O)C(CO)(CO)c3cc(OC(F)(F)F)ccc32)cc1 |
